These are literature values, as cited in US8008021B2, “N-terminal truncation of cardiac troponin subunits and their roles in cardiovascular disease” (Evanston Northwestern Healthcare, priority 2006, dated 2011).

The structures appear in SMILES notation.

This data set addresses T1, μ-calpain (Homo sapiens, UniProt P07384).
T1 sequence (P07384 1-714): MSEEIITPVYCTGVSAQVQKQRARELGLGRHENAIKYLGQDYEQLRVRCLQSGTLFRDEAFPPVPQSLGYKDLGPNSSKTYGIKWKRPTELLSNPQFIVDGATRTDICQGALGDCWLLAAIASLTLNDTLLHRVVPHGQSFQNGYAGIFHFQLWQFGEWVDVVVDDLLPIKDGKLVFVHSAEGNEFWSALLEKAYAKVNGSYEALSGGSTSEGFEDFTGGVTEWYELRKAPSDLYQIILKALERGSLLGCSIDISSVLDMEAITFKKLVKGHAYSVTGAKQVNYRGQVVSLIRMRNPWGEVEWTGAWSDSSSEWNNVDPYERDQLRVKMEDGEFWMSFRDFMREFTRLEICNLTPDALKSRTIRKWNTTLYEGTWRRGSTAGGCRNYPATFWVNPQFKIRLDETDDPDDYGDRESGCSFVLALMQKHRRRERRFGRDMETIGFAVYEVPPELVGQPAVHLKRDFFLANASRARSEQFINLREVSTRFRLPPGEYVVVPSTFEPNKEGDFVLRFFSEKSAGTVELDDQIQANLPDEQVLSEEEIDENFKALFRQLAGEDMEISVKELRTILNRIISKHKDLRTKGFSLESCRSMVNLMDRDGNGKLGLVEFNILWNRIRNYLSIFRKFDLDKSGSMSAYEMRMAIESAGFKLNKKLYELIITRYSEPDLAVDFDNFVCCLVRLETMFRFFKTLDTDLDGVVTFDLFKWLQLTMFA
T1 sequence (P04632 1-268 partner): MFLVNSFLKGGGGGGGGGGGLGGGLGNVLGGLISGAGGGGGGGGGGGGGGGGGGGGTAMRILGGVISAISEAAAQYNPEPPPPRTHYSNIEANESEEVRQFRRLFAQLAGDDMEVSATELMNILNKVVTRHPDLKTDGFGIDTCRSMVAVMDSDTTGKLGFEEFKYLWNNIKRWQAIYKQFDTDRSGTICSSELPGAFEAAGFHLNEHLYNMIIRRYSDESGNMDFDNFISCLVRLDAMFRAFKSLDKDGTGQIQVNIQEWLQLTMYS
To be noted: reference 43, cited from earlier work; for Ki: read-out: apparent inhibition constant Ki against μ-calpain.

With `O=C(O)/C(S)=C/c1c[nH]c2ccc(F)cc12` [PD151746], the “selectivity for μ-calpain over m-calpain” value was 20 fold and the Ki is 260 ± 30 nM.

Regarding `O=C(O)/C(S)=C/c1ccc(I)cc1` [PD150606], the Ki is 210 ± 10 nM.
